How the values were obtained:
[1] = test system: leuteinizing hormone (LH) release; details: LH-RH = 100 percent; cited from earlier work
ovulation [2] = details: administered at noon of proestrus; cited from earlier work
LH-RH = details: in vitro; cited from earlier work
ovulation [3] = test: Anti-ovulatory activity in proestrus rats (oviducts inspected for ova); type: in vivo, Sprague-Dawley CD rats; details: single administration at 1200 hours of proestrus
Method: The product of Example 2 was injected subcutaneously, in corn oil, as a single administration at 1200 hours on the day of proestrus (at least 2.5 hours prior to the commencement of the ovulatory LH surge). The rats were sacrificed on the morning of estrus (the day following proestrus) and the oviducts were inspected for the presence of ova under a dissecting microscope. The number of animals ovulating and the percent inhibition were as follows: […]

For Nal(1)^3 -LH-RH, which “potency as LH releasing agent relative to LH-RH” value [1] is on record?
The value was 187.1%.

Which “effective dose for in vivo inhibition of ovulation” value (ovulation [2]) does the source give for [D-pGlu^1, D-Phe^2, D-Trp^3,6 ]-LH-RH here?
Its value is 20 to 25 mg.

And the “IDR50 (inhibitory molar dose ratio antagonist/LH-RH)” value (LH-RH)?
Its value is 3/1.

Which results are given for “D-(5-Oxoprolyl)-D-phenylalanyl-D-3-(1-naphthyl)-alanyl-L-seryl-L-tyrosyl-D- 3-(1-naphthyl)-alanyl-L-leucyl-L-arginyl-L-prolyl-glycine acetate salt [Example 2]”?
number of animals ovulating (ovulation [3]; 375 μg s.c. in corn oil): 5/6; percent inhibition of ovulation (ovulation [3]; 375 μg s.c. in corn oil): 17%; number of animals ovulating (ovulation [3]; 500 μg s.c. in corn oil): 6/20; percent inhibition of ovulation (ovulation [3]; 500 μg s.c. in corn oil): 70%; number of animals ovulating (ovulation [3]; 1000 μg s.c. in corn oil): 1/14; percent inhibition of ovulation (ovulation [3]; 1000 μg s.c. in corn oil): 93%
